From publication PMC3662788, “The Catalytic Roles of P185 and T188 and Substrate-Binding Loop Flexibility in 3α-Hydroxysteroid Dehydrogenase/Carbonyl Reductase from Comamonas testosteroni” (PLoS ONE, 2013)
Changes are numbered by the printed parent chain. Numbers in names are those of the source. Where “and” joins values, the source holds several entries; their conditions need not be identical. Identical values can stand only once.

Legend:
T188A mutant 3α-HSD/CR = molecular target: T1, T188A mutant 3α-HSD/CR (Comamonas testosteroni, UniProt P80702, T188A); experiment: biochemical; type: biochemical
T1 construct: His-tag (inferred from pET15b vector and Ni-NTA purification) (N); made in house; host or cells: Escherichia coli BL21(DE3)
T1 sequence (P80702 whole entry T188A): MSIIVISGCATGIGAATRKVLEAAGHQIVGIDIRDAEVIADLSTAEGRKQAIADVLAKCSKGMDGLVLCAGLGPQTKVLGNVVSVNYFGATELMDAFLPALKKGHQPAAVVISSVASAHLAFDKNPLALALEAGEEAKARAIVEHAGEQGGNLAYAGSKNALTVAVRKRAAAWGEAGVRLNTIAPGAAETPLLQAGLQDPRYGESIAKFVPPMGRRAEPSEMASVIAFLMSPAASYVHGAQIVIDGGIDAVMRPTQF
Text: (§1) All reactions were initiated by the addition of an enzyme.
(§2) The data were fitted to Equation 2.

T188S mutant 3α-HSD/CR = molecular target: T2, T188S mutant 3α-HSD/CR (Comamonas testosteroni, UniProt P80702, T188S); experiment: biochemical; type: biochemical
T2 construct: His-tag (inferred from pET15b vector and Ni-NTA purification) (N); made in house; host or cells: Escherichia coli BL21(DE3)
T2 sequence (P80702 whole entry T188S): as the sequence (P80702 whole entry T188A) above, with A188S counted along it
Text: as §1, §2

P185A mutant 3α-HSD/CR = molecular target: T3, P185A mutant 3α-HSD/CR (Comamonas testosteroni, UniProt P80702, P185A); experiment: Steady-state kinetics and primary isotope effects, oxidation of androsterone with NAD^+
T3 sequence (P80702 1-257 P185A): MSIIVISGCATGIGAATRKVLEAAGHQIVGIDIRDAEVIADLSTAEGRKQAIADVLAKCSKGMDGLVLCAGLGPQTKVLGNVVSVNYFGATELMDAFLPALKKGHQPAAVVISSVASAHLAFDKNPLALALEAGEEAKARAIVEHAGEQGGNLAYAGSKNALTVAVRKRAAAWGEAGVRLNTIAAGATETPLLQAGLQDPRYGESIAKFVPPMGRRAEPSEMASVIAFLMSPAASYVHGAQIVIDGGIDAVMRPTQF
Text: as §1, §2

wild-type 3α-HSD/CR [1] = molecular target: T4, wild-type 3α-HSD/CR (Comamonas testosteroni, UniProt P80702); conditions: cited from earlier work
T4 sequence (P80702 1-257): T3 sequence (P80702 1-257 P185A) with A185P

wild-type 3α-HSD/CR [2] = molecular target: T4, wild-type 3α-HSD/CR
wild-type 3α-HSD/CR [3] = molecular target: T4, wild-type 3α-HSD/CR; conditions: WT; pH 10.5; obtained from Table 1
Text: as §1, §2

[4] = substrate: NC(=O)c1ccc[n+]([C@@H]2O[C@H](COP(=O)([O-])OP(=O)(O)OC[C@H]3O[C@@H](n4cnc5c(N)ncnc54)[C@H](O)[C@@H]3O)[C@@H](O)[C@H]2O)c1; experiment: purified protein, by the assay type; conditions: other: P185A, 0.1 M Caps pH 10.5, 25°C
[5] = P185A, 0.1 M Caps pH 10.5, 25°C
[6] = WT, labeled vs unlabeled androsterone, 1.7 mM NAD^+, pH 10.5

## NC(=O)c1ccc[n+]([C@@H]2O[C@H](COP(=O)([O-])OP(=O)(O)OC[C@H]3O[C@@H](n4cnc5c(N)ncnc54)[C@H](O)[C@@H]3O)[C@@H](O)[C@H]2O)c1 [NAD^+]
T188A mutant 3α-HSD/CR
  Ki: 1400 ± 200 µM
T188A mutant 3α-HSD/CR; T188A vs wild-type, pH 10.5, Equation 4
  ΔΔGbmut/wt (differential ground-state binding energy, enzyme-NAD^+ complex): 1.8 kcal/mol
T188S mutant 3α-HSD/CR
  Ki: 1600 ± 300 µM
T188S mutant 3α-HSD/CR; T188S vs wild-type, pH 10.5, Equation 4
  ΔΔGbmut/wt (differential ground-state binding energy, enzyme-NAD^+ complex): 1.9 kcal/mol
P185A mutant 3α-HSD/CR
  Ki: 1000 ± 300 µM
P185A mutant 3α-HSD/CR; P185A vs wild-type, pH 10.5, Equation 4
  ΔΔGbmut/wt (differential ground-state binding energy, enzyme-NAD^+ complex): 1.7 kcal/mol
P185A mutant 3α-HSD/CR; [5]
  kcat/Ka (NAD^+): 4.7e+06 ± 1.1e+06 M⁻¹ s⁻¹
wild-type 3α-HSD/CR [1]; WT, 0.1 M Caps pH 10.5
  Ka (Michaelis constant of NAD^+): 121 ± 26 µM
wild-type 3α-HSD/CR [1]; read-out: Kia (inhibition constant of NAD^+), WT, 0.1 M Caps pH 10.5
  Ki: 60 ± 30 µM

## C[C@]12CC[C@@H](O)C[C@@H]1CC[C@@H]1[C@@H]2CC[C@]2(C)C(=O)CC[C@@H]12 [androsterone, Androsterone]
T188A mutant 3α-HSD/CR; T188A vs wild-type, pH 10.5, Equation 5
  ΔΔG^‡ mut/wt (differential transition-state binding energy): 1.9 kcal/mol
T188A mutant 3α-HSD/CR; T188A, 0.1 M Caps pH 10.5, 25°C
  kcat: 1200 ± 133 s⁻¹
T188A mutant 3α-HSD/CR; T188A, pH 10.5, obtained from Table 1
  kcat/KiaKb (kcat/KiNADKandrosterone): 1.7×10^4 mM^−2s^−1
T188A mutant 3α-HSD/CR; mutation of T188 (T188A), pH 10.5
  increase of Kandrosterone relative to wild-type: 14 fold
T188S mutant 3α-HSD/CR; T188S vs wild-type, pH 10.5, Equation 5
  ΔΔG^‡ mut/wt (differential transition-state binding energy): 2.0 kcal/mol
T188S mutant 3α-HSD/CR; T188S, 0.1 M Caps pH 10.5, 25°C
  kcat: 1414 ± 149 s⁻¹
T188S mutant 3α-HSD/CR; T188S, pH 10.5, obtained from Table 1
  kcat/KiaKb (kcat/KiNADKandrosterone): 1.4×10^4 mM^−2s^−1
wild-type 3α-HSD/CR [2]; calculated from kobs 309 s^−1 and ^D(Vmax/Kandrosterone) 1.8
  minimum rate constant for hydride transfer from undeuterated androsterone to NAD^+: ≥ 556 s⁻¹
P185A mutant 3α-HSD/CR; P185A vs wild-type, pH 10.5, Equation 5
  ΔΔG^‡ mut/wt (differential transition-state binding energy): 0.96 kcal/mol
P185A mutant 3α-HSD/CR; [5]
  kcat: 916 ± 61 s⁻¹
P185A mutant 3α-HSD/CR; P185A, pH 10.5
  increase of kcat/Kandrosterone relative to wild-type: 3 fold
P185A mutant 3α-HSD/CR; P185A, pH 10.5, obtained from Table 1
  kcat/KiaKb (kcat/KiNADKandrosterone): 8.3×10^4 mM^−2s^−1
wild-type 3α-HSD/CR [3]
  kcat/KiaKb (kcat/KiNADKandrosterone): 42 ×10^4 mM^−2s^−1
wild-type 3α-HSD/CR [1]; WT, 0.1 M Caps pH 10.5
  kcat: 100 ± 8 s⁻¹
wild-type 3α-HSD/CR [1]; [6]
  ^D(V/K b) (primary kinetic isotope effect on Vmax/Kandrosterone): 1.8 and 1.8±0.2
  ^DV (primary kinetic isotope effect on Vmax): 1
wild-type 3α-HSD/CR [1]; wild-type
  ^D2OVmax (solvent kinetic isotope effect): 2.1

## [2H]C1(O)CCC2(C)C(CCC3C4CCC(=O)C4(C)CCC32)C1 (stereo not drawn) [deuterated androsterone, [3α-^2H]Androsterone]
wild-type 3α-HSD/CR [2]; 1 µM WT, 1 mM NAD^+, 17.5 µM deuterated androsterone, 0.1 M Caps pH 10.5, 25°C
  apparent rate constant (kobs) for the deuteride transfer: 309 s⁻¹

B1: P185A mutant 3α-HSD/CR (Comamonas testosteroni; P185A) (protein)
chain: T3 sequence (P80702 1-257 P185A)
[4]
  Km: 195 ± 55 µM
